Legend:
ΔNClpB = molecular target: T1, ΔNClpB (Francisella tularensis, UniProt A0Q8N0)
T1 construct: gene clpB

[1] = molecular target: F. novicida DnaK (F. novicida)

| Compound | ATPase activity (ΔNClpB) | refolding of urea-denatured firefly luciferase with DnaK, DnaJ, GrpE and ATP [1] [%] |
| --- | --- | --- |
| Nc1ncnc2c1ncn2[C@@H]1O[C@H](COP(=O)(O)OP(=O)(O)OP(=O)(O)O)[C@@H](O)[C@H]1O [ATP] | ΔNClpB had a slightly increased basal ATPase activity in the absence of casein | – |
| F. novicida ClpB (wild-type) (natural protein) | – | 83 |

Source: article PMC7182274 (PLoS Pathogens, 2020)
